In article PMC8037182, “Solvothermal Synthesis of Multiple Dihydropyrimidinones at a Time as Inhibitors of Eg5” (Molecules, 2021):

System: L929 cell line
Assay: Cytotoxicity MTS assay, L929 cell line
Type: cell-based
Conditions: for OD490 values, Mean / OD490 values, Well 1 / OD490 values, Well 2 / OD490 values, Well 3: L929 cell line; for IC50: MTS assay, 24 h exposure, ordinary fibroblast, not cancer cells
Method: The positive compounds (IC50 < 100 μM) obtained from the primary Eg5 motor protein ATPase assay were tested for antiproliferative activity in vitro against Caco-2 cell line, Hela cell line, L929 cell line and T24 cell line by performing MTS assay. Cells were introduced into 96-well plates at a density of 1000 cells per well. After 24 h incubation, the cells were exposed with compounds at final concentrations ranging from 0.5 to 100 µM for 24 h. DMSO was used at a final concentration of 0.025% as blank control, monastrol was used as the positive control. Then 20 µL (CellTiter 96® AQueous One Solution Promega, Madison, WI, USA) reagent was added in each well. After 2 h at 37 °C in a 80% humidified, 5% CO2 atmosphere, the absorbance at 490 nm was recorded using a microplate reader (BIO-RAD iMark^TM). The results were obtained in three independent duplicate experiments. The primary data were shown in Supplementary Materials Tables S4–S7. The IC50 values for these compounds were calculated from a non-linear regression graph plotted between the percentage of cell viability and concentration with SPSS17.0 software.

CCOC(=O)c1c(C2NC(=O)NC(C)=C2C(=O)Nc2ccccc2OC)[nH]c(C(=O)OC)c1C (centres unmarked) [D1]
OD490 values, Mean (0.5μM, first assay): 1.3706 | OD490 values, Well 1 (0.5μM, first assay): 1.4101 | OD490 values, Well 2 (0.5μM, first assay): 1.3370 | OD490 values, Well 3 (0.5μM, first assay): 1.3648 | OD490 values, Mean (0.5μM, second assay): 1.7900 | OD490 values, Well 1 (0.5μM, second assay): 1.7354 | OD490 values, Well 2 (0.5μM, second assay): 1.9532 | OD490 values, Well 3 (0.5μM, second assay): 1.6814 | OD490 values, Mean (0.5μM, third assay): 1.6902 | OD490 values, Well 1 (0.5μM, third assay): 1.6425 | OD490 values, Well 2 (0.5μM, third assay): 1.7433 | OD490 values, Well 3 (0.5μM, third assay): 1.6847 | OD490 values, Mean (1μM, first assay): 1.3549 | OD490 values, Well 1 (1μM, first assay): 1.3334 | OD490 values, Well 2 (1μM, first assay): 1.3850 | OD490 values, Well 3 (1μM, first assay): 1.3462 | OD490 values, Mean (1μM, second assay): 1.7547 | OD490 values, Well 1 (1μM, second assay): 1.7965 | OD490 values, Well 2 (1μM, second assay): 1.7320 | OD490 values, Well 3 (1μM, second assay): 1.7355 | OD490 values, Mean (1μM, third assay): 1.7249 | OD490 values, Well 1 (1μM, third assay): 1.7365 | OD490 values, Well 2 (1μM, third assay): 1.7452 | OD490 values, Well 3 (1μM, third assay): 1.6930 | OD490 values, Mean (10μM, first assay): 1.3153 | OD490 values, Well 1 (10μM, first assay): 1.3870 | OD490 values, Well 2 (10μM, first assay): 1.3090 | OD490 values, Well 3 (10μM, first assay): 1.2498 | OD490 values, Mean (10μM, second assay): 1.7648 | OD490 values, Well 1 (10μM, second assay): 1.6895 | OD490 values, Well 2 (10μM, second assay): 1.7985 | OD490 values, Well 3 (10μM, second assay): 1.8063 | OD490 values, Mean (10μM, third assay): 1.7158 | OD490 values, Well 1 (10μM, third assay): 1.7235 | OD490 values, Well 2 (10μM, third assay): 1.7253 | OD490 values, Well 3 (10μM, third assay): 1.6985 | OD490 values, Mean (25μM, first assay): 1.2680 | OD490 values, Well 1 (25μM, first assay): 1.2444 | OD490 values, Well 2 (25μM, first assay): 1.2849 | OD490 values, Well 3 (25μM, first assay): 1.2747 | OD490 values, Mean (25μM, second assay): 1.6159 | OD490 values, Well 1 (25μM, second assay): 1.6525 | OD490 values, Well 2 (25μM, second assay): 1.5652 | OD490 values, Well 3 (25μM, second assay): 1.6301 | OD490 values, Mean (25μM, third assay): 1.4383 | OD490 values, Well 1 (25μM, third assay): 1.5307 | OD490 values, Well 2 (25μM, third assay): 1.3321 | OD490 values, Well 3 (25μM, third assay): 1.4521 | OD490 values, Mean (50μM, first assay): 1.2064 | OD490 values, Well 1 (50μM, first assay): 1.2251 | OD490 values, Well 2 (50μM, first assay): 1.1315 | OD490 values, Well 3 (50μM, first assay): 1.2627 | OD490 values, Mean (50μM, second assay): 1.4454 | OD490 values, Well 1 (50μM, second assay): 1.4685 | OD490 values, Well 2 (50μM, second assay): 1.3855 | OD490 values, Well 3 (50μM, second assay): 1.4822 | OD490 values, Mean (50μM, third assay): 1.3084 | OD490 values, Well 1 (50μM, third assay): 1.3124 | OD490 values, Well 2 (50μM, third assay): 1.3165 | OD490 values, Well 3 (50μM, third assay): 1.2962 | OD490 values, Mean (100μM, first assay): 1.1038 | OD490 values, Well 1 (100μM, first assay): 1.1234 | OD490 values, Well 2 (100μM, first assay): 1.0461 | OD490 values, Well 3 (100μM, first assay): 1.1419 | OD490 values, Mean (100μM, second assay): 1.2865 | OD490 values, Well 1 (100μM, second assay): 1.2022 | OD490 values, Well 2 (100μM, second assay): 1.2699 | OD490 values, Well 3 (100μM, second assay): 1.3874 | OD490 values, Mean (100μM, third assay): 1.3217 | OD490 values, Well 1 (100μM, third assay): 1.4554 | OD490 values, Well 2 (100μM, third assay): 1.2165 | OD490 values, Well 3 (100μM, third assay): 1.2933 | IC50: 125 µM

CCOC(=O)c1c(C2NC(=O)NC(C)=C2C(=O)Nc2ccccc2C)[nH]c(C(=O)OC)c1C (centres unmarked) [D2]
OD490 values, Mean (0.5μM, first assay): 1.3610 | OD490 values, Well 1 (0.5μM, first assay): 1.3640 | OD490 values, Well 2 (0.5μM, first assay): 1.3358 | OD490 values, Well 3 (0.5μM, first assay): 1.3832 | OD490 values, Mean (1μM, first assay): 1.4199 | OD490 values, Well 1 (1μM, first assay): 1.4170 | OD490 values, Well 2 (1μM, first assay): 1.4018 | OD490 values, Well 3 (1μM, first assay): 1.4410 | OD490 values, Mean (10μM, first assay): 1.4901 | OD490 values, Well 1 (10μM, first assay): 1.4578 | OD490 values, Well 2 (10μM, first assay): 1.4940 | OD490 values, Well 3 (10μM, first assay): 1.5185 | OD490 values, Mean (25μM, first assay): 1.5070 | OD490 values, Well 1 (25μM, first assay): 1.5039 | OD490 values, Well 2 (25μM, first assay): 1.5321 | OD490 values, Well 3 (25μM, first assay): 1.4850 | OD490 values, Mean (50μM, first assay): 1.4864 | OD490 values, Well 1 (50μM, first assay): 1.5650 | OD490 values, Well 2 (50μM, first assay): 1.4275 | OD490 values, Well 3 (50μM, first assay): 1.4667 | OD490 values, Mean (100μM, first assay): 1.2316 | OD490 values, Well 1 (100μM, first assay): 1.2364 | OD490 values, Well 2 (100μM, first assay): 1.1967 | OD490 values, Well 3 (100μM, first assay): 1.2618 | IC50: > 150 µM
